Source: PMC8213057, “Targeting ALK2: An Open Science Approach to Developing Therapeutics for the Treatment of Diffuse Intrinsic Pontine Glioma” (Journal of Medicinal Chemistry, 2020)

Columns and labels:
GRK4 = GRK4 (Homo sapiens, UniProt P32298); details: 1 μM; Run 1, Run 2
TESK1 = TESK1 (Homo sapiens, UniProt Q15569); assay: biochemical; details: read-out: % enzyme activity, 1 μM; Run 1, Run 2
DLK/MAP3K12 = target: T1, DLK/MAP3K12 (Homo sapiens, UniProt Q12852); details: 1 μM; Run 1, Run 2
T1 sequence (Q12852 1-859): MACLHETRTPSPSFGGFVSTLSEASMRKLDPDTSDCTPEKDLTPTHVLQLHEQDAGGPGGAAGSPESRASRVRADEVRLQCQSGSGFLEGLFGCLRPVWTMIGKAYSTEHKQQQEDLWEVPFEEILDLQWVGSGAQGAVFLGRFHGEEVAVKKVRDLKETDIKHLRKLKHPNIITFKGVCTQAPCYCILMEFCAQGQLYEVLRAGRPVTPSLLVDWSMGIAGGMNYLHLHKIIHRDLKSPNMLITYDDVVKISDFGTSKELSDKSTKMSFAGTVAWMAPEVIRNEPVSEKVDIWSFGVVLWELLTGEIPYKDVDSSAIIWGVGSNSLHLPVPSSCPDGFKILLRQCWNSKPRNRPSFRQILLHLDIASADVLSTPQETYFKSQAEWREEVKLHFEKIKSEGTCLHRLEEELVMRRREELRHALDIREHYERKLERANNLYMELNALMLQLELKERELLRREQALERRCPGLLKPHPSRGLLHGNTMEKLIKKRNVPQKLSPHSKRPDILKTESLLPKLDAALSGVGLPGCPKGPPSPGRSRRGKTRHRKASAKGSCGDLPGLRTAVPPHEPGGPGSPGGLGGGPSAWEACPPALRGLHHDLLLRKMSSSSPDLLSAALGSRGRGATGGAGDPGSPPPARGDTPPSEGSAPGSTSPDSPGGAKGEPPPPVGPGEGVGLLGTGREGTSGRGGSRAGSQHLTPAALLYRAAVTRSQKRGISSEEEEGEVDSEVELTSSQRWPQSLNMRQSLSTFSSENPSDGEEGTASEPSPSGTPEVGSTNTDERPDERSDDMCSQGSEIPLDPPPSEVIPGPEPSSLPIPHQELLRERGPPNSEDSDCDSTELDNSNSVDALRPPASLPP

EPHA2 = EPHA2 (Homo sapiens, UniProt P29317); assay: biochemical; details: read-out: % enzyme activity, 1 μM; Run 1, Run 2
STK16 = STK16 (Homo sapiens, UniProt O75716); details: 1 μM; Run 1, Run 2
DYRK1B = DYRK1B (Homo sapiens, UniProt Q9Y463); details: 1 μM; Run 1, Run 2
Caco-2 cells = assay: Caco-2 permeability assay; details: 5 μM; for Papp_AB: Caco-2, apical to basolateral; for Papp_BA: Caco-2, basolateral to apical
PASK = PASK (Homo sapiens, UniProt Q96RG2); assay: biochemical; details: read-out: % enzyme activity, 1 μM; Run 1, Run 2
MASTL = target: T2, MASTL (Homo sapiens, UniProt Q96GX5); details: 1 μM; Run 1, Run 2
T2 sequence (Q96GX5 1-879): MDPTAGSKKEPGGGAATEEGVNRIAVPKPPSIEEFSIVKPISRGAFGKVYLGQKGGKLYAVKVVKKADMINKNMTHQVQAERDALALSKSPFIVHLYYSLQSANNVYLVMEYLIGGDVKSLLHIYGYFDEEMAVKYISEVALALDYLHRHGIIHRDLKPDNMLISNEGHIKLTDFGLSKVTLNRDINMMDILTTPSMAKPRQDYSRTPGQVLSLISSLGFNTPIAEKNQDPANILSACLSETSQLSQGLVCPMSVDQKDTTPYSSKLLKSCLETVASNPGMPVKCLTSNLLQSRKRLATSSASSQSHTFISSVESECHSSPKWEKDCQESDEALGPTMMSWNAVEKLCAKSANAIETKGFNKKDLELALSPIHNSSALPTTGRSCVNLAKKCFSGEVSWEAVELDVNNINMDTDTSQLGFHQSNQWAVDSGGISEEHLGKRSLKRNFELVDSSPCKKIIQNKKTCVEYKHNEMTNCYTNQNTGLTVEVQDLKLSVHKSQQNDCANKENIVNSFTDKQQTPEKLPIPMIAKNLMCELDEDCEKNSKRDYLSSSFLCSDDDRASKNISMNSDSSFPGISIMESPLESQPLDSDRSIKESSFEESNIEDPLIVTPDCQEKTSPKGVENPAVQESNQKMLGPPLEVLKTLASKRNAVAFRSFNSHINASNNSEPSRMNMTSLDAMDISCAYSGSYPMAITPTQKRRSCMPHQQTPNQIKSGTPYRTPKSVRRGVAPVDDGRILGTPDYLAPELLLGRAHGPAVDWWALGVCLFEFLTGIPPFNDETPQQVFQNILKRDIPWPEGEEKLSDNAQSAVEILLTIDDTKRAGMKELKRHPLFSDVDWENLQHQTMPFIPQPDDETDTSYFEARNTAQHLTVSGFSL

MEK3 = target: T3, MEK3 (Homo sapiens, UniProt P46734); assay: biochemical; details: read-out: % enzyme activity, 1 μM; Run 1, Run 2
T3 sequence (P46734 1-347): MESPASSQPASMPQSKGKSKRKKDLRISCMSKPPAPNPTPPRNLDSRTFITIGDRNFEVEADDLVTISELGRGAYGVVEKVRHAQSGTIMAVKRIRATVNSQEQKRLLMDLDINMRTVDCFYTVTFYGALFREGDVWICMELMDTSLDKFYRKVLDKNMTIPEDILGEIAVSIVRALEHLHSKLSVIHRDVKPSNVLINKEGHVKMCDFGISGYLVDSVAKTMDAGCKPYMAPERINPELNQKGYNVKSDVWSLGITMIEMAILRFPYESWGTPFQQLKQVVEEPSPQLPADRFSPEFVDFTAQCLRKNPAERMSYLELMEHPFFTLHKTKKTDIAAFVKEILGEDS

CDK3/cyclin E = CDK3/cyclin E (Homo sapiens, UniProt Q00526); details: 1 μM; Run 1, Run 2
CDK3/cyclin E, sequence (Q00526 whole entry): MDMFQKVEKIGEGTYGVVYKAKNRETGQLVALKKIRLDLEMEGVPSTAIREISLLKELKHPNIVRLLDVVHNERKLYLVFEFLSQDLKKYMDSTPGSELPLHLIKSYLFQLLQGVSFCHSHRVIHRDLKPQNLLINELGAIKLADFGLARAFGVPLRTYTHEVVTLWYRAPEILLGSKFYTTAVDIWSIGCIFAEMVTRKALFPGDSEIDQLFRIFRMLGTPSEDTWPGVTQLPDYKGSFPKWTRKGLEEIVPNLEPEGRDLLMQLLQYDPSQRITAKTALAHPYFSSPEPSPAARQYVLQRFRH
CDK3/cyclin E, sequence (P24864 whole entry, further chain): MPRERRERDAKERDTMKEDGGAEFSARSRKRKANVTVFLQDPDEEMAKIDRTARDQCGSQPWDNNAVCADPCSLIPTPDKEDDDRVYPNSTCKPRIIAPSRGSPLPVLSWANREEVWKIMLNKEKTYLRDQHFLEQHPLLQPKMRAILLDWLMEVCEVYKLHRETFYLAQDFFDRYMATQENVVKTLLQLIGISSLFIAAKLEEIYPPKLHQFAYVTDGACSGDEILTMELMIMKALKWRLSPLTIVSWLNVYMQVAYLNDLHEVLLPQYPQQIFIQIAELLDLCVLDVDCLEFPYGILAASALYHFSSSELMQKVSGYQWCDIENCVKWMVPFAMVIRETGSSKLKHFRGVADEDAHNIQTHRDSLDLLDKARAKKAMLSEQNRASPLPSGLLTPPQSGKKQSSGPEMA

TESK1, sequence (Q15569 whole entry): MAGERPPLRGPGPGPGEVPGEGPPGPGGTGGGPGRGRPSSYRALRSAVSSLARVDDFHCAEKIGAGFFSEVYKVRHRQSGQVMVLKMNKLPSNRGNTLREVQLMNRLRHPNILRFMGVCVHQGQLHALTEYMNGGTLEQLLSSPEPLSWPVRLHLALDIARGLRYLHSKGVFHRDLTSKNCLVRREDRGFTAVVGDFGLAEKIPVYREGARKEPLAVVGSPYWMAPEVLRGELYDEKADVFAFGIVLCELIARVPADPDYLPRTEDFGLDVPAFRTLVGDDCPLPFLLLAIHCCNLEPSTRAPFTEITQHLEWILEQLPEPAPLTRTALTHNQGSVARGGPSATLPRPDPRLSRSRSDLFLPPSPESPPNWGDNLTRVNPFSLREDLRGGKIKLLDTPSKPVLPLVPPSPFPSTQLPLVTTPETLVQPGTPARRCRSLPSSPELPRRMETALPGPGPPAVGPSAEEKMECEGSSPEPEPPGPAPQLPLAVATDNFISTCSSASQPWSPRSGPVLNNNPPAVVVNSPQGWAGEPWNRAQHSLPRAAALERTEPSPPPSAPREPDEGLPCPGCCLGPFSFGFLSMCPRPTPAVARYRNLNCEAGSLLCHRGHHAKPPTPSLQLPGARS
EPHA2, sequence (P29317 24-976): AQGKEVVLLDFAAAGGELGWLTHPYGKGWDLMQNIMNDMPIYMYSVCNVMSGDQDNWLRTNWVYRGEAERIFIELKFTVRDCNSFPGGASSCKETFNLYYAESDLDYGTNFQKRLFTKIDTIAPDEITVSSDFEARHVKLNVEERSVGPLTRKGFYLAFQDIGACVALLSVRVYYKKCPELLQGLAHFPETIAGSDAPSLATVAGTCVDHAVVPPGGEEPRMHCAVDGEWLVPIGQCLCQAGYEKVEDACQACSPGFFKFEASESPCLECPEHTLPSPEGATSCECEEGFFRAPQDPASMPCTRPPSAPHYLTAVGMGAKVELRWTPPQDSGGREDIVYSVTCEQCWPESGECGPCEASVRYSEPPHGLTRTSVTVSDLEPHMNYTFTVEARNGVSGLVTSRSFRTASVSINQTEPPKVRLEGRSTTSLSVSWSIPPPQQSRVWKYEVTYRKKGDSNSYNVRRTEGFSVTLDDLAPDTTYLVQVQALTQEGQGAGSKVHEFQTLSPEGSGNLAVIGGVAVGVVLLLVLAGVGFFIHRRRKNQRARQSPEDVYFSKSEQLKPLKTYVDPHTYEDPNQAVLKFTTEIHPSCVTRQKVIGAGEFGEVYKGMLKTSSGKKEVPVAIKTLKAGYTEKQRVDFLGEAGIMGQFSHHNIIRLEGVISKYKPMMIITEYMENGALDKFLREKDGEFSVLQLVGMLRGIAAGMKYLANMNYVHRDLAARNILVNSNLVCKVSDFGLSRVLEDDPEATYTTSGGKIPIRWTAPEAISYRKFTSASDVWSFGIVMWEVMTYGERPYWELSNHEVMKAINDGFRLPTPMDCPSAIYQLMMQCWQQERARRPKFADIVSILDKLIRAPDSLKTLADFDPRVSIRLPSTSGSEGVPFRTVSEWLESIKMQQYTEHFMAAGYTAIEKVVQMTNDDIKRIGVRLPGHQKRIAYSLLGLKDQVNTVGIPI
GRK4, sequence (P32298 whole entry): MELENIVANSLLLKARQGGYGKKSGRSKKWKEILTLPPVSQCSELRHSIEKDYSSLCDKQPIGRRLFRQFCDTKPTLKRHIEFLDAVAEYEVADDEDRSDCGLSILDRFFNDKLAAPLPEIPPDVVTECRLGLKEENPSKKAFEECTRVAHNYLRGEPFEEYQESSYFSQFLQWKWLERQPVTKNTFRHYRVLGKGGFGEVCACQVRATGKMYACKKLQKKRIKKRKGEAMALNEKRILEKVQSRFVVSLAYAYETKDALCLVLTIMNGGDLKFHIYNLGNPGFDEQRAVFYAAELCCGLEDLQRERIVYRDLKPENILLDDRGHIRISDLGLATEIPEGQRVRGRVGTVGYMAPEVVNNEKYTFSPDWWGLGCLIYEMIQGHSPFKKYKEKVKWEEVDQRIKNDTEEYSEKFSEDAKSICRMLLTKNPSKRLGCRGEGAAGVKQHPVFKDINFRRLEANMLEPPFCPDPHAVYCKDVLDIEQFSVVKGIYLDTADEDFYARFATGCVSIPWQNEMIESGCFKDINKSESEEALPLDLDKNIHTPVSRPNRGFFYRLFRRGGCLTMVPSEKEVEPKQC
STK16, sequence (O75716 whole entry): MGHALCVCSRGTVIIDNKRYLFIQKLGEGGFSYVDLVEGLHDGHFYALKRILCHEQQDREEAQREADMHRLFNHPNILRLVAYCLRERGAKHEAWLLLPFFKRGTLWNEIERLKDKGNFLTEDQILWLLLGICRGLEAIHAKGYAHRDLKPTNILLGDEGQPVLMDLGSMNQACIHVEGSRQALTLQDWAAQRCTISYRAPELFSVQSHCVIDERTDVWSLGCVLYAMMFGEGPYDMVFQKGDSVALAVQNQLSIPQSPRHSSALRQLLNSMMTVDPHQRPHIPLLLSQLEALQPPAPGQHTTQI
PASK, sequence (Q96RG2 whole entry): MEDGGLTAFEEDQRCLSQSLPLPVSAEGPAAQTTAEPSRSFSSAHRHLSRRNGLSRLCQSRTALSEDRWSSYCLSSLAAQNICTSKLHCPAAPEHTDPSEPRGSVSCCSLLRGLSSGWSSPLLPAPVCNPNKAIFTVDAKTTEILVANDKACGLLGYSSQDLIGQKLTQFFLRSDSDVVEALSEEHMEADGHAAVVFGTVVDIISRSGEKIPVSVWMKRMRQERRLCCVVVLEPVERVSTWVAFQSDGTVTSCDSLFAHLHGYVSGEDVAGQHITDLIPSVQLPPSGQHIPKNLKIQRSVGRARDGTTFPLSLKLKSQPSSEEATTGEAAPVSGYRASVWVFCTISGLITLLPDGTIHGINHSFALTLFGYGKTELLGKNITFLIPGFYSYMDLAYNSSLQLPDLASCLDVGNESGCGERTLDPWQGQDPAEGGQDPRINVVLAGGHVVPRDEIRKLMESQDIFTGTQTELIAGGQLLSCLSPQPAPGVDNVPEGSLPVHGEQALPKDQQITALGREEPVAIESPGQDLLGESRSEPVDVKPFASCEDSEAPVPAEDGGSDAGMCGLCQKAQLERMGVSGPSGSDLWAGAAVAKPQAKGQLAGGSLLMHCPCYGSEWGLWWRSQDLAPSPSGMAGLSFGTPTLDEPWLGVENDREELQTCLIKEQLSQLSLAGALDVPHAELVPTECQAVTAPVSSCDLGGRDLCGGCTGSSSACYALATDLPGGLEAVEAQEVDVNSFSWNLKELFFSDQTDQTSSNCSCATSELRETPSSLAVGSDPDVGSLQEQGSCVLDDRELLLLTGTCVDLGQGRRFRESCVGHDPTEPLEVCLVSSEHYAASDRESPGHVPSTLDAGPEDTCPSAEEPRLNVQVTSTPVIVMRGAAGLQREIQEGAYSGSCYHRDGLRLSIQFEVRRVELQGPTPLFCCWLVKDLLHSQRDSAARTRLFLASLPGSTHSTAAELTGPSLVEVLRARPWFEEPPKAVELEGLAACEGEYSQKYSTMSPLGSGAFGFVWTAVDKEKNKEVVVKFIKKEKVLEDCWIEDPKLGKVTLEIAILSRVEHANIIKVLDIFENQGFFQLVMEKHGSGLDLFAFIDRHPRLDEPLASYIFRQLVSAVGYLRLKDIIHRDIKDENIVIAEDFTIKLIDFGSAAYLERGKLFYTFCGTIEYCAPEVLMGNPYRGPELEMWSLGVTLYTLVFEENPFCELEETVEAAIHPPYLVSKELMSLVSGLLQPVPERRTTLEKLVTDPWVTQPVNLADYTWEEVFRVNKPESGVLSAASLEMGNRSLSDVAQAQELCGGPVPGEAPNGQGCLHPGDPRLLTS

SMILES | % enzyme activity (GRK4) [%] | remaining activity at 1 µM (TESK1) [%] | % enzyme activity (DLK/MAP3K12) [%] | remaining activity at 1 µM (EPHA2) [%] | % enzyme activity (STK16) [%] | % enzyme activity (DYRK1B) [%] | Papp_AB (Caco-2 cells) | Papp_BA (Caco-2 cells) | remaining activity at 1 µM (PASK) [%] | % enzyme activity (MASTL) [%] | remaining activity at 1 µM (MEK3) [%] | % enzyme activity (CDK3/cyclin E) [%]
COc1cc(-c2cncc(-c3ccc(N4CCN(C)CC4)cc3)c2C)cc(F)c1C(N)=O [Compound 26a, 2-Fluoro-6-methoxy-4-(4-methyl-5-(4-(4-methylpiperazin-1-yl)phenyl)pyridin-3-yl)benzamide] | 79.15 | 114 | 91.76 | 103 | 103.69 | 39.80 | 5.5 10^-6 cm/s | 16.2 10^-6 cm/s | 94 | 98.59 | 102 | 81.63
COc1cc(-c2cncc(-c3ccc(N4C[C@@H](C)N(C)[C@@H](C)C4)cc3)c2C)cc(F)c1C(N)=O [Compound 26c, 2-Fluoro-6-methoxy-4-(4-methyl-5-(4-((3R,5S)-3,4,5-trimethylpiperazin-1-yl)phenyl)pyridin-3-yl)benzamide] | 92.15 | 105 | 97.93 | 108 | 99.45 | 58.52 | 4.3 10^-6 cm/s | 14.5 10^-6 cm/s | 99.2 | 100.30 | 101 | 78.38
